One experiment deals with denervated EDL muscle. Nature of the experiment: Denervation atrophy of EDL muscle after peroneal nerve crush (wet muscle weight, protein content). It is filed as in vivo, Sprague Dawley rats. To be noted: for Muscle wt / Proteins: peptide crushed; for Muscle wt: wet EDL weight; for Proteins: ug protein content per mg muscle weight. How it is done: LHRH analogs can be tested for effectiveness in treating injured nerve tissue or preserving muscle mass according to the testing procedures described below for the LHRH analog BIM-21009. BIM-21009 is an antagonist of LHRH activity having the amino acid formula N-Acetyl-D-Naphthylalanine-D-para-Cl-Phe-D-Phe-Ser-Tyr-D-Arg-Phe-Arg-Pro-D-Ala-NH2. BIM-21009 was administered to animals both prior to and after denervation. The animals were prepared for treatment as follows.
Adult male and female Sprague Dawley rats (Hilltop) weighing approximately 250-275 g were housed in groups of three of the same sex and provided with Purina rat chow and water ad libitum. They were maintained in a 12L:12D photoperiod with lights off at 19:00 hr. Animals were divided into 2 groups having six subdivisions each of 5-7 animals: (1) four days post-lesion: "sham crushed" (i.e., sham nerve crush) males and females, "intact crushed" (i.e., nerve crush control group) males and females, and "LHRH antagonist treated and crushed" (i.e., peptide treatment after nerve crush, also referred to as "peptide crushed") males and females; and (2) twelve days post-lesion: sham crushed males and females, intact crushed males and females, and LHRH treated and crushed males and females.
All animals were anesthetized with an 8% solution of chloral hydrate (0.4 g/kg). An incision was made on the left leg and the peroneal nerve was exposed at its site of entrance into the peroneal longus muscle. The nerve was crushed with a watchmaker forcep having a uniformly filed tip of 0.2 mm, by applying pressure on the nerve for 10 seconds, rotating the forceps, and applying pressure again on the opposite side for another 10 seconds. After crush, this area of approximately 1 mm becomes translucid. This modified crush method gives well-defined axonal interruption without disrupting the connective tissue sheaths or blood vessels in the region.
All chemically treated animals received 1 s.c. injection of the LHRH antagonist BIM-21009 at a dosage of 5 mg/kg 24 hrs prior to denervation. Animals in the 12 day groups received an additional injection of 5 mg/kg 6 days after the first injection.
Dissections were performed between 13:00 and 15:00 hrs. The peroneal nerve was allowed to regenerate for 4 or 12 days, after which the animals were anesthetized with chloral hydrate (0.4 g/kg), the extensor digitorum longus ("EDL") was dissected, frozen on powdered dry ice and stored at -70° C. until the day of the assay.
The Lowry Method was used for protein determinations. Statistical analysis was performed using 2×2 ANOVA, 1 way ANOVA. Tukey's HSD test was used for post-hoc comparisons.

The next experiment concerns acetylcholine receptors. It is filed as in vivo, Sprague Dawley rats. The note with it: for AChR (cpm) / AChR: peptide crushed; for AChR: fmoles per ug protein.
Setting [1] is: females, 4 days post-lesion, 5 mg/kg s.c.
[2] abbreviates: females, 12 days post-lesion, 2 x 5 mg/kg s.c.
Setting [3] is: males, 4 days post-lesion, 5 mg/kg s.c.
Setting [4] is: males, 12 days post-lesion, 2 x 5 mg/kg s.c.

Read-outs that look alike come from different tables or passages of the source.

We go through one substance from US5084443A, “Promoting expression of acetylcholine receptors with LHRH antagonist” (Biomeasure, Inc., priority 1989, dated 1992).

For the substance “N-Acetyl-D-Naphthylalanine-D-para-Cl-Phe-D-Phe-Ser-Tyr-D-Arg-Phe-Arg-Pro-D-Ala-NH2 [BIM-21009]”, the “atrophy of the denervated EDL muscle vs crushed control group” value in the experiment with denervated EDL muscle (both at 4 days and at 12 days post-lesion, less striking in females than in males) is reported as “significantly decreased”. Moreover, in the experiment with denervated EDL muscle (females as well as males (FIG. 2)), the “recovery from the crush-induced muscle atrophy: protein content” value is reported as “increase in protein content rather than fat accumulation or edema”. Also, the Muscle wt with denervated EDL muscle (females, 4 days post-lesion, 5 mg/kg s.c. 24 hrs prior to denervation) is listed as 83.8 mg; in the experiment on denervated EDL muscle (females, 12 days post-lesion, 5 mg/kg s.c. 24 hrs prior to denervation plus 5 mg/kg 6 days later) it was 84.0 mg; with denervated EDL muscle (males, 4 days post-lesion, 5 mg/kg s.c. 24 hrs prior to denervation), 81.2 mg; with denervated EDL muscle (males, 12 days post-lesion, 5 mg/kg s.c. 24 hrs prior to denervation plus 5 mg/kg 6 days later), 83.1 mg. Moreover, the Proteins with denervated EDL muscle (setting [1]) is 4.58 µg; in the experiment with denervated EDL muscle (setting [2]), 4.23 µg; with denervated EDL muscle (setting [3]) it was 4.05 µg; with denervated EDL muscle (setting [4]), 4.34 µg. Also, in the experiment on denervated EDL muscle (males), the “protection of EDL muscle from denervation atrophy” value is given as “protects the EDL muscle in the males from denervation atrophy”. In addition, the “ratio of cpm/mg muscle vs intact crushed groups” value with acetylcholine receptors (both males and females (FIG. 5)) is “higher ratio of cpm/mg muscle”. Moreover, in the experiment with acetylcholine receptors (both sexes, at 4 days after nerve crush, more marked in males), the “number of ACh receptors” value is reported as “dramatic increase”. Also, in the experiment on acetylcholine receptors (day 4 vs day 12 post-lesion), the “time course of effect on ACh receptor number” value was “maximal effect at day 4 post-lesion and a minimal or null effect by day 12”. The “AChR (cpm)” value in the experiment on acetylcholine receptors (setting [1]) is reported as 23.39 cpm; in the experiment with acetylcholine receptors (setting [2]) it was 15.34 cpm; with acetylcholine receptors (setting [3]), 38.37 cpm; in the experiment with acetylcholine receptors (setting [4]), 19.01 cpm. In addition, the “AChR” value with acetylcholine receptors (setting [1]) turned out to be 90.07 fmol; in the experiment on acetylcholine receptors (setting [2]), 65.74 fmol; in the experiment on acetylcholine receptors (setting [3]), 166.96 fmol; with acetylcholine receptors (setting [4]), 82.09 fmol. Also, the “ratio of AChR number/muscle (fM AChR/mg muscle or fM/ug protein) vs crushed group with intact gonads” value in the experiment on acetylcholine receptors (male and female rats (FIGS. 3 and 4)) is given as “significantly higher ratio”. Besides, the “AChR number/muscle weight ratio vs crushed untreated controls” value in the experiment with acetylcholine receptors (males with intact gonads (FIG. 4)) is reported as “higher than in the crushed untreated controls”.
